From ChEMBL document CHEMBL1201862, “PubChem BioAssay data set” (2004)
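48-hour exposure; five concentrations; linearly interpolated endpoints. Here, GI50 denotes the concentration required for 50% inhibition of growth.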 The source made the active and inactive calls. No stated cut-off is given here; in the data, active = GI50 up to about 1.1 µM and inactive = higher.

Columns and labels:
Test in all cases: DTP human tumour cell line panel, 48 h
HCT-116 = system: HCT-116
CCRF-CEM = system: CCRF-CEM
A549 = system: A549
HT-29 = system: HT-29
MDA-MB-231 = system: MDA-MB-231
SK-MEL-5 = system: SK-MEL-5
SN12C = system: SN12C
MDA-N = system: MDA-N
K562 = system: K562
HCC 2998 = system: HCC 2998
T47D = system: T47D
MCF7 = system: MCF7
MDA-MB-435 = system: MDA-MB-435
RPMI-8226 = system: RPMI-8226
U-251 = system: U-251
SK-OV-3 = system: SK-OV-3
CAKI-1 = system: CAKI-1
SK-MEL-28 = system: SK-MEL-28
MOLT-4 = system: MOLT-4
NCI-H226 = system: NCI-H226

SMILES	GI50 (HCT-116)	GI50 (CCRF-CEM)	GI50 (A549)	GI50 (HT-29)	GI50 (MDA-MB-231)	GI50 (SK-MEL-5)	GI50 (SN12C)	GI50 (MDA-N)	GI50 (K562)	GI50 (HCC 2998)	GI50 (T47D)	GI50 (MCF7)	GI50 (MDA-MB-435)	GI50 (RPMI-8226)	GI50 (U-251)	GI50 (SK-OV-3)	GI50 (CAKI-1)	GI50 (SK-MEL-28)	GI50 (MOLT-4)	GI50 (NCI-H226)
c1cncc(C(Nc2cccc3cccnc23)Nc2cccc3cccnc23)c1	> 100 µM (inactive)	66.1 µM (inactive)	> 100 µM (inactive)	> 100 µM (inactive)	> 100 µM (inactive)	> 100 µM (inactive)	> 100 µM (inactive)	> 100 µM (inactive)	> 100 µM (inactive)	> 100 µM (inactive)	> 100 µM (inactive)	> 100 µM (inactive)	> 100 µM (inactive)	55.8 µM (inactive)	> 100 µM (inactive)	> 100 µM (inactive)	53 µM (inactive)			
CCN(CC)C(=O)COc1cc2c(O)c3c(O)c(C)c4c(c13)C(=O)C(C)(OC=CC(OC)C(C)C(OC(C)=O)C(C)C(O)C(C)C(O)C(C)C=CC=C(C)C(=O)N2)O4 (stereo not drawn)	> 100 µM (inactive)	> 100 µM (inactive)	> 100 µM (inactive)	> 100 µM (inactive)	> 100 µM (inactive)	> 100 µM (inactive)	> 100 µM (inactive)	> 100 µM (inactive)	> 100 µM (inactive)	> 100 µM (inactive)	> 100 µM (inactive)	> 100 µM (inactive)		37.4 µM (inactive)	> 100 µM (inactive)	> 100 µM (inactive)	> 100 µM (inactive)	> 100 µM (inactive)	> 100 µM (inactive)	> 100 µM (inactive)
O=C(Cn1c(C(=O)/C=C/c2cccs2)nc2ccccc21)c1ccc(Cl)cc1	16.6 µM (inactive)		23.3 µM (inactive)	19.7 µM (inactive)	16.8 µM (inactive)	14.4 µM (inactive)	16.7 µM (inactive)	21.1 µM (inactive)	7.8 µM (inactive)	14.8 µM (inactive)	36.3 µM (inactive)	16.3 µM (inactive)	12.7 µM (inactive)	8.05 µM (inactive)	14.4 µM (inactive)	32.9 µM (inactive)		30.5 µM (inactive)		53.8 µM (inactive)
Cc1cc(NC(=O)NC(=O)c2ccccc2NC(=O)CN)ccc1Oc1ncc(Br)cn1	0.33 µM (active)	0.403 µM (active)	0.879 µM (active)	0.299 µM (active)	0.297 µM (active)		1.16 µM (inactive)	0.105 µM (active)	0.419 µM (active)	5.21 µM (inactive)	12.3 µM (inactive)	0.259 µM (active)	0.145 µM (active)	1.57 µM (inactive)	0.743 µM (active)		0.0627 µM (active)	0.859 µM (active)	2.5 µM (inactive)	1.18 µM (inactive)
Cn1ccc(C(=O)N2CCSC2=S)c(OCc2ccccc2)c1=O	> 100 µM (inactive)	48.8 µM (inactive)	> 100 µM (inactive)	> 100 µM (inactive)	> 100 µM (inactive)	> 100 µM (inactive)	> 100 µM (inactive)	> 100 µM (inactive)	> 100 µM (inactive)	> 100 µM (inactive)	66.7 µM (inactive)		> 100 µM (inactive)	> 100 µM (inactive)	> 100 µM (inactive)		72.3 µM (inactive)	> 100 µM (inactive)		> 100 µM (inactive)
C=CCC1C(=O)Nc2cccc3ncn(c23)C1=O (stereo not drawn)	> 100 µM (inactive)	> 100 µM (inactive)	> 100 µM (inactive)	> 100 µM (inactive)	> 100 µM (inactive)	> 100 µM (inactive)	> 100 µM (inactive)	> 100 µM (inactive)	> 100 µM (inactive)		> 100 µM (inactive)	> 100 µM (inactive)	> 100 µM (inactive)	> 100 µM (inactive)	> 100 µM (inactive)	> 100 µM (inactive)	> 100 µM (inactive)	> 100 µM (inactive)	> 100 µM (inactive)	> 100 µM (inactive)
Cn1c(N)nc2c(nc(OCc3ccccc3)n2C2OC(CO)C(O)C2O)c1=O (stereo not drawn)	> 100 µM (inactive)	> 100 µM (inactive)	> 100 µM (inactive)	> 100 µM (inactive)	> 100 µM (inactive)	> 100 µM (inactive)	> 100 µM (inactive)	> 100 µM (inactive)	> 100 µM (inactive)		> 100 µM (inactive)	> 100 µM (inactive)	> 100 µM (inactive)	> 100 µM (inactive)	> 100 µM (inactive)	> 100 µM (inactive)	> 100 µM (inactive)	> 100 µM (inactive)	71.8 µM (inactive)	> 100 µM (inactive)
O=C(NCCC(F)(F)C(F)(F)C(F)(F)C(F)(F)F)NC1OC(CO)C(O)C(O)C1O (stereo not drawn)	> 100 µM (inactive)	> 100 µM (inactive)	> 100 µM (inactive)	> 100 µM (inactive)	> 100 µM (inactive)	> 100 µM (inactive)	> 100 µM (inactive)	> 100 µM (inactive)	> 100 µM (inactive)	> 100 µM (inactive)	> 100 µM (inactive)	> 100 µM (inactive)	> 100 µM (inactive)	> 100 µM (inactive)	> 100 µM (inactive)	> 100 µM (inactive)	> 100 µM (inactive)	> 100 µM (inactive)	> 100 µM (inactive)	
CCOC(=O)c1cc(=O)c2ccnc3c2n1CCS3	> 100 µM (inactive)	48.5 µM (inactive)	69.8 µM (inactive)	> 100 µM (inactive)	> 100 µM (inactive)	> 100 µM (inactive)	> 100 µM (inactive)	> 100 µM (inactive)			17.6 µM (inactive)	> 100 µM (inactive)	> 100 µM (inactive)		43.9 µM (inactive)	> 100 µM (inactive)	> 100 µM (inactive)	> 100 µM (inactive)	> 100 µM (inactive)	> 100 µM (inactive)
C=Cc1cc(OC)c2c(c1)c(=O)oc1c2cc(OC)c2c(O)ccc(C3OC(C)C(O)C(C)(O)C3O)c21 (stereo not drawn)	0.0235 µM (active)	0.0225 µM (active)	0.0328 µM (active)	0.0341 µM (active)	0.00345 µM (active)		0.0303 µM (active)	0.00171 µM (active)	0.0306 µM (active)	0.0493 µM (active)	0.00147 µM (active)	0.0225 µM (active)	0.00163 µM (active)	0.0294 µM (active)	0.0296 µM (active)	0.0445 µM (active)	0.0462 µM (active)		0.0225 µM (active)	
N=c1oc2ccc(Cl)cc2cc1C(N)=O	21.2 µM (inactive)	40.6 µM (inactive)	42.6 µM (inactive)	38.5 µM (inactive)	24.4 µM (inactive)	20.5 µM (inactive)	18.8 µM (inactive)	25.1 µM (inactive)	> 100 µM (inactive)	25.7 µM (inactive)	24.8 µM (inactive)		31.7 µM (inactive)	66.4 µM (inactive)	40.4 µM (inactive)	> 100 µM (inactive)	34.1 µM (inactive)	29 µM (inactive)	> 100 µM (inactive)	28.2 µM (inactive)
CNC(=O)c1ccccc1-[s+]1c2ccccc2c(=O)n1C (stereo not drawn)	> 100 µM (inactive)	> 100 µM (inactive)	> 100 µM (inactive)	> 100 µM (inactive)	> 100 µM (inactive)	> 100 µM (inactive)	> 100 µM (inactive)	> 100 µM (inactive)	> 100 µM (inactive)		> 100 µM (inactive)	> 100 µM (inactive)	> 100 µM (inactive)	> 100 µM (inactive)	> 100 µM (inactive)		> 100 µM (inactive)	> 100 µM (inactive)	> 100 µM (inactive)	> 100 µM (inactive)
Cc1ccc2nc(-c3ccc(N)c(Br)c3)sc2c1	31.4 µM (inactive)	3.37 µM (inactive)	29 µM (inactive)	40.7 µM (inactive)	25.3 µM (inactive)	79.1 µM (inactive)	> 100 µM (inactive)	> 100 µM (inactive)	17.4 µM (inactive)	2.64 µM (inactive)	0.655 µM (active)		5.4 µM (inactive)		37.5 µM (inactive)	22.5 µM (inactive)	34.8 µM (inactive)	> 100 µM (inactive)	4.33 µM (inactive)	17.5 µM (inactive)
CC(=O)OCC1OC(O[C@@H]2C[C@H]3C(C)(C)[C@H](OC(C)=O)CC[C@]3(C)[C@H]3CC[C@]4(C)C(=CC[C@H]4[C@@H](C)C[C@@H](O)[C@H](O)C(C)(C)O)[C@@]32C)C(O)C(O)C1O (stereo partly drawn)	14.4 µM (inactive)	17.6 µM (inactive)		17.4 µM (inactive)	16.9 µM (inactive)		17.5 µM (inactive)	18.4 µM (inactive)	18.3 µM (inactive)	20.8 µM (inactive)	16.7 µM (inactive)	17.3 µM (inactive)	14.8 µM (inactive)	12.2 µM (inactive)	12.7 µM (inactive)	18.5 µM (inactive)	14.2 µM (inactive)	15.9 µM (inactive)	16.8 µM (inactive)	
CCCCOC(=O)NC(c1ccccc1)C(O)C(=O)OC1C[C@@]2(O)C(OC(=O)c3ccccc3)C3[C@](C)(C(=O)[C@H](OC(C)=O)C(=C1C)C2(C)C)[C@@H](O)C[C@H]1OC[C@@]31OC(C)=O (stereo partly drawn)	0.00216 µM (active)	0.00425 µM (active)	0.00873 µM (active)	0.00228 µM (active)	0.034 µM (active)	0.0102 µM (active)	0.0157 µM (active)	0.00176 µM (active)	0.00447 µM (active)	0.011 µM (active)	0.175 µM (active)	0.00248 µM (active)	0.00224 µM (active)	0.00377 µM (active)	0.00807 µM (active)	0.0205 µM (active)			0.0407 µM (active)	
